Assay results reported in patent US20120202840A1, “Use of Flubendazole and Vinca Alkaloids for Treatment of Hematological Diseases” (priority 2009, published 2012).

Test system: bovine tubulin
Experiment: Measurement of tubulin sulfhydryl groups (DTNB)
Format: biochemical
Conditions: flubendazole 100 μM, vinblastine 10 μM
Procedure: A representative figure is shown.
The ability of microtubule target drugs to alter tubulin structure was assessed by measuring the number of reactive cysteine residues using the sulfhydryl reagent 5,5′-Dithio-bis(2-nitrobenzoic acid) (DTNB; Sigma) as previously described^19,29. […] After incubation, DTNB was added (100 μM final concentration) and the absorbance was measured in a 1 cm path length cuvette at 412 nm for 60 min at 37° C. The number of sulfhydryl groups were determined by using a molar extinction coefficient for DTNB of 13 600 (M^−1, cm^−1).^29

COC(=O)Nc1nc2ccc(C(=O)c3ccc(F)cc3)cc2[nH]1 [flubendazole]
reduction in number of reactive cysteines compared to buffer control: 5.2±2.6
